Data as given in patent US20250313548A1 (Actio Biosciences, Inc., priority 2023, published 2025).

The compounds below were run against human, KCNT1 (Homo sapiens (Human), UniProt Q5JUK3) (assay: FLIPR Tl/K Flux Assay). Conditions: HEK293 cells stably expressing human KCNT1; Tl+ flux stimulated with EC80 of agonist Loxapine.
Format: cell-based
How it was run: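 HEK293 cells stably expressing human KCNT1 were loaded with FLIPR potassium dye in HEPES/HBSS pH 7.4 with 5 mM probenecid, 1 h at 25 °C, then given test compound for 30 min at 25 °C. Tl+ flux was triggered with chloride-free buffer containing Tl+ and EC80 loxapine and read 160 s. IC50 came from Hill fits of % inhibition.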

human, KCNT1, sequence (Q5JUK3 whole entry): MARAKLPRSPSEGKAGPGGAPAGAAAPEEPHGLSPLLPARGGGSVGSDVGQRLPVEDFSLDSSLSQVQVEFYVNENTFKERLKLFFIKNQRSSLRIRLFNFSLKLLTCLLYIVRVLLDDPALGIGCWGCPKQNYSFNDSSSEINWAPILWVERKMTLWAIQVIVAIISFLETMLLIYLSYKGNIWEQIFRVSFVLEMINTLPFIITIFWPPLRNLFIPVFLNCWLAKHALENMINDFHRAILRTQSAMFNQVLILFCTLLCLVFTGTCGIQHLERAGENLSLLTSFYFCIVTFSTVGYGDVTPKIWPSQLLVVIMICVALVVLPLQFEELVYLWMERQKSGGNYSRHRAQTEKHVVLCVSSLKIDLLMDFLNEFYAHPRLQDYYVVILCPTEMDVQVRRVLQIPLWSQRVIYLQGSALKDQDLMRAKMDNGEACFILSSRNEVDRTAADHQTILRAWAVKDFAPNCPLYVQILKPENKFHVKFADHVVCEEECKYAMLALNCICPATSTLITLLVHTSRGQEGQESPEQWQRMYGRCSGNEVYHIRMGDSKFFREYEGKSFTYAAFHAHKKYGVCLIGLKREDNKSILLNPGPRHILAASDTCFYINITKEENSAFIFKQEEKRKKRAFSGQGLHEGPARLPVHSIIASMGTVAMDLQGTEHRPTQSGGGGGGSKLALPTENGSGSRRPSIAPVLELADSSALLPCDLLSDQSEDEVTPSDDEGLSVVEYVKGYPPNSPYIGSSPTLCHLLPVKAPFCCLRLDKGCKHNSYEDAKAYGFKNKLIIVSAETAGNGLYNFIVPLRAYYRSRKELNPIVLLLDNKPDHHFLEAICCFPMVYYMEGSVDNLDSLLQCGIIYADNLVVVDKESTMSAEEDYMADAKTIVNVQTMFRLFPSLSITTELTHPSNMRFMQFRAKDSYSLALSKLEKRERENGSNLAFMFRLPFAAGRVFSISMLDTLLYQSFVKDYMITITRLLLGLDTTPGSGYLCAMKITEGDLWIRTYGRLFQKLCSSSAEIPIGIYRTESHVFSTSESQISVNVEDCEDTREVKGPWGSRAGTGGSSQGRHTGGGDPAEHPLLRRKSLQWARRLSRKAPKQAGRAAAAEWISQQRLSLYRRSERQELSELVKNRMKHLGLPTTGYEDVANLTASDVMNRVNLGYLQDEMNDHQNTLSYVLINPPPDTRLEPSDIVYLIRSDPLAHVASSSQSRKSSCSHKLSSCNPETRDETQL

IC50 [µM]	SMILES
> 1	CC(C)n1cnc(C(=O)N[C@H]2CCCn3nc(-c4ccnc(C(F)(F)F)c4)cc32)n1 [Compound I-412a]
> 1	O=C(N[C@H]1CCCn2nc(-c3ccnc(C(F)(F)F)c3)cc21)c1cc2n(n1)CCCO2 [Compound I-413a]
< 0.25	Cc1cc(C(=O)N[C@H]2CCCn3nc(-c4ccnc(C(F)(F)F)c4)cc32)cc(C)n1 [Compound I-414a]
< 0.25	Cn1cc(C(=O)N[C@H]2CCCn3nc(-c4ccnc(C(F)(F)F)c4)cc32)c(C(F)F)n1 [Compound I-415a]
0.25 to 0.5	Cc1cn(C)nc1C(=O)N[C@H]1CCCn2nc(-c3ccnc(C(F)(F)F)c3)cc21 [Compound I-416a]
< 0.25	Cc1nn(C)c(C(=O)N[C@H]2CCCn3nc(-c4ccnc(C(F)(F)F)c4)cc32)c1F [Compound I-417a]
< 0.25	Cc1cc(C#N)cc(C(=O)N[C@H]2CCCn3nc(-c4ccnc(C(F)(F)F)c4)cc32)c1 [Compound I-418a]
< 0.25	O=C(N[C@H]1CCCn2nc(-c3ccnc(C(F)(F)F)c3)cc21)c1cccc(C(F)(F)F)c1F [Compound I-419a]
< 0.25	COc1cc(C(=O)N[C@H]2CCCn3nc(-c4ccnc(C(F)(F)F)c4)cc32)c(F)cn1 [Compound I-420a]
< 0.25	Cn1ncc(C(=O)N[C@H]2CCCn3nc(-c4ccnc(C(F)(F)F)c4)cc32)c1C(F)F [Compound I-421a]
> 1	O=C(N[C@H]1CCCn2nc(-c3ccnc(C(F)(F)F)c3)cc21)c1nc2ccccn2n1 [Compound I-422a]
> 1	Cc1ccn(CC(=O)N[C@H]2CCCn3nc(-c4ccnc(C(F)(F)F)c4)cc32)n1 [Compound I-423a]
< 0.25	COc1cc(C(=O)N[C@H]2CCCn3nc(-c4ccnc(C(F)(F)F)c4)cc32)nc(C(F)(F)F)n1 [Compound I-424a]
> 1	N#Cc1c(C(=O)N[C@H]2CCCn3nc(-c4ccnc(C(F)(F)F)c4)cc32)ncn1CC(F)(F)F [Compound I-425a]
< 0.25	Cc1cc(C(=O)N[C@H]2CCCn3nc(-c4ccnc(C(F)(F)F)c4)cc32)n(C(F)F)n1 [Compound I-426a]
< 0.25	COc1cc(-c2cc3n(n2)CC[C@@H]3NC(=O)c2cc(C(F)(F)F)nn2C)ccn1 [Compound I-427a]
> 1	COc1cc(-c2cc3n(n2)CC[C@H]3NC(=O)c2cc(C(F)(F)F)nn2C)ccn1 [Compound I-427b]
< 0.25	COc1cc(-c2nc3c(o2)CCC[C@@H]3NC(=O)c2cc(C(F)(F)F)nn2C)ccn1 [Compound I-428a]
< 0.25	CC(C)c1cc(-c2cc3n(n2)CCC[C@@H]3NC(=O)c2cc(C(F)(F)F)nn2C)ccn1 [Compound I-429a]
< 0.25	COc1cc(-c2cc3n(n2)CCC[C@@H]3NC(=O)c2cc(C(F)(F)F)nn2C)cc(C)n1 [Compound I-431a]
< 0.25	Cc1cc(-c2cc3n(n2)CCC[C@@H]3NC(=O)c2cc(C(F)(F)F)nn2C)cc(C(F)(F)F)n1 [Compound I-432a]
> 1	Cc1cc(-c2cc3n(n2)CCC[C@@H]3NC(=O)c2cc(C(F)(F)F)nn2C)cc(C)n1 [Compound I-433a]
< 0.25	Cc1nn2ccccc2c1C(=O)N[C@H]1CCCn2nc(-c3ccnc(C(F)(F)F)c3)cc21 [Compound I-434a]
> 1	O=C(N[C@H]1CCCn2nc(-c3ccnc(C(F)(F)F)c3)cc21)c1cnn(CC(F)(F)F)c1 [Compound I-435a]
> 1	O=C(N[C@H]1CCCn2nc(-c3ccnc(C(F)(F)F)c3)cc21)c1cc2n(n1)CCO2 [Compound I-436a]
< 0.25	O=C(N[C@H]1CCCn2nc(-c3ccnc(C(F)(F)F)c3)cc21)c1cncc(C(F)(F)F)n1 [Compound I-437a]

IC50 [µM]	SMILES
> 1	O=C(N[C@H]1CCCn2nc(-c3ccnc(C(F)(F)F)c3)cc21)c1nccc(C(F)(F)F)n1 [Compound I-438a]
< 0.25	CCc1[nH]nc(C(=O)N[C@H]2CCCn3nc(-c4ccnc(C(F)(F)F)c4)cc32)c1F [Compound I-439a]
0.5 to 1	Cc1ccn2ncc(C(=O)N[C@H]3CCCn4nc(-c5ccnc(C(F)(F)F)c5)cc43)c2n1 [Compound I-440a]
< 0.25	CC(C)c1nc(C(=O)N[C@H]2CCCn3nc(-c4ccnc(C(F)(F)F)c4)cc32)co1 [Compound I-441a]
< 0.25	O=C(N[C@H]1CCCn2nc(-c3ccnc(C(F)(F)F)c3)cc21)c1cc2cccnn2c1 [Compound I-442a]
< 0.25	N#Cc1cccc(C(=O)N[C@H]2CCCCn3nc(-c4ccnc(C(F)(F)F)c4)cc32)c1 [Compound I-443a]
0.5 to 1	Cn1nc(C(F)(F)F)cc1C(=O)N[C@H]1CCCn2nc(-c3ccnc(C(C)(C)O)c3)cc21 [Compound I-444a]
< 0.25	Cc1cnc(C(F)(F)F)cc1-n1cc2c(n1)CCC[C@@H]2NC(=O)c1cc(C(F)(F)F)nn1C [Compound I-445a]
< 0.25	COc1cc(-n2cc3c(n2)CC[C@@H]3NC(=O)c2cc(F)cc(F)c2)ccn1 [Compound I-446a]
< 0.25	COc1cc(-c2cc3n(n2)CC[C@@H]3NC(=O)c2cc(F)cc(F)c2)ccn1 [Compound I-447a]
< 0.25	COc1cc(-c2cc3n(n2)CC[C@H]3NC(=O)c2cc(F)cc(F)c2)ccn1 [Compound I-447b]
< 0.25	Cc1cc(C(=O)N[C@H]2CCCn3nc(-c4ccnc(C(F)(F)F)c4)cc32)n(-c2ccccc2)n1 [Compound I-448a]
< 0.25	N#Cc1cccc(C(=O)N[C@H]2CCCn3nc(-c4ccnc(C5CC5)c4)cc32)c1 [Compound I-449a]
< 0.25	O=C(N[C@H]1CCn2nc(-c3ccnc(C(F)(F)F)c3)cc21)c1cc(Cl)cc(C(F)(F)F)c1 [Compound I-451a]
0.25 to 0.5	Cn1nc(C(F)(F)F)cc1C(=O)N[C@H]1CCCc2cnc(-c3ccnc(C(F)(F)F)c3)nc21 [Compound I-452a]
> 1	Cn1nc(C(F)(F)F)cc1C(=O)N[C@@H]1CCCc2cnc(-c3ccnc(C(F)(F)F)c3)nc21 [Compound I-452b]
> 1	O=C(N[C@H]1CCCc2nnc(-c3ccnc(C(F)(F)F)c3)cc21)c1cc(F)cc(F)c1 [Compound I-453a]
> 1	O=C(N[C@@H]1CCCc2nnc(-c3ccnc(C(F)(F)F)c3)cc21)c1cc(F)cc(F)c1 [Compound I-453b]
< 0.25	N#Cc1cccc(C(=O)N[C@H]2CCc3nn(-c4ccnc(C(F)(F)F)c4)cc32)c1 [Compound I-454a]
< 0.25	N#Cc1cc(F)cc(C(=O)N[C@H]2CCc3nn(-c4ccnc(C(F)(F)F)c4)cc32)c1 [Compound I-455a]
< 0.25	COc1cc(-c2cc3n(n2)CCCC[C@@H]3NC(=O)c2cccc(C#N)c2)ccn1 [Compound I-456a]
< 0.25	N#Cc1cccc(C(=O)N[C@H]2CCCCn3nc(-c4ccnc(C5CC5)c4)cc32)c1 [Compound I-457a]
< 0.25	N#Cc1cc(Cl)cc(C(=O)N[C@H]2CCCn3nc(-c4ccnc(C(F)(F)F)c4)cc32)c1 [Compound I-458a]
< 0.25	Cn1nc(C(F)(F)F)cc1C(=O)N[C@H]1CCCn2nc(-c3ccnc(C4(C)CC4)c3)cc21 [Compound I-459a]
> 1	Cn1nc(C(F)(F)F)cc1C(=O)N[C@H]1CCc2ncc(-c3ccnc(C(F)(F)F)c3)cc21 [Compound I-460a]
< 0.25	O=C(N[C@H]1CCCc2cnc(-c3ccnc(C(F)(F)F)c3)cc21)c1cc(F)cc(F)c1 [Compound I-461a]
